Starred links: 1 amine or outer side, 2 acyl side, 3 side chain; linkers in the order of their positions; H or OH if unused. Non-standard residues stand in square brackets, D forms with d. Residues, ends and D or L forms follow the SMILES beside them. X1 = O=C([C@@H](N[*:1])C1c2ccccc2CCc2ccccc21)[*:2]
Tests used:
Endothelin-1 receptor = biological target: T1, Endothelin-1 receptor (Homo sapiens, UniProt P25101); assay: Binding affinity in LtK cells stably transfected with human endothelin A (ETA) receptor; format: cell-based
T1 sequence (P25101 whole entry): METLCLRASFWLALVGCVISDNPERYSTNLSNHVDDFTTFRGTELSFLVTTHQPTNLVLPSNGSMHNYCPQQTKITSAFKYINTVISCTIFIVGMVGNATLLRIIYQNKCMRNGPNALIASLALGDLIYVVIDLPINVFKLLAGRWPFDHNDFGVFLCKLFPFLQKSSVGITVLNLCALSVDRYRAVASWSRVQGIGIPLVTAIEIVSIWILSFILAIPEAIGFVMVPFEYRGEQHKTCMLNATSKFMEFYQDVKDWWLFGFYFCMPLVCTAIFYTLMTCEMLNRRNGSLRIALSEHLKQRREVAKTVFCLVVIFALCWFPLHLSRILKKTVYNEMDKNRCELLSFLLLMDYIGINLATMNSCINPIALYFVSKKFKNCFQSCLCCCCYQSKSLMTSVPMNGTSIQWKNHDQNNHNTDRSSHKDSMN

[1] = biological target: T2, Endothelin receptor type B (Homo sapiens, UniProt P24530); assay: Binding affinity in Chinese hamster ovary (CHO) cells stably transfected with human endothelin B (ETB) receptor; format: cell-based
T2 sequence (P24530 whole entry): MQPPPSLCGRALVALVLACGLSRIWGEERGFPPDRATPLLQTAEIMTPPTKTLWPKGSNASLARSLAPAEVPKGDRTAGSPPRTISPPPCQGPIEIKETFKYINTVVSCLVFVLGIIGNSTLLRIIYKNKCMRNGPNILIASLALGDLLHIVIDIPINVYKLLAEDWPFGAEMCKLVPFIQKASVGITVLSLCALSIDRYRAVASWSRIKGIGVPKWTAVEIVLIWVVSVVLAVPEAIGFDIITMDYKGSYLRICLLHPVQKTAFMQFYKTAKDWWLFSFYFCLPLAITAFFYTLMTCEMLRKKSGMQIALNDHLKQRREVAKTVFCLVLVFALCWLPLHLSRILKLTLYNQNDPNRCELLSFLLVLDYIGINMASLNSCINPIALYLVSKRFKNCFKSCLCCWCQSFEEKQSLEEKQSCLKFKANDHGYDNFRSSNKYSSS

In the case of NC(=O)C[C@H](NC(=O)[C@H](Cc1ccccc1)NC(=O)[C@H](Cc1ccccc1)NC(=O)[C@@H](N)Cc1c[nH]c2ccccc12)C(=O)N[C@@H](Cc1ccc(O)cc1)C(=O)N[C@@H](Cc1ccc(O)cc1)C(=O)N[C@@H](Cc1c[nH]c2ccccc12)C(=O)O (H-WFFNYYW-OH), the IC50 (Endothelin-1 receptor) is reported as 2.4 µM and the IC50 [1] is reported as 15 µM.
CC(=O)N[C@H](C(=O)N[C@@H](Cc1ccccc1)C(=O)N[C@@H](CC(N)=O)C(=O)N[C@@H](Cc1ccc(O)cc1)C(=O)N[C@@H](Cc1ccc(O)cc1)C(=O)N[C@@H](Cc1c[nH]c2ccccc12)C(=O)O)C1c2ccccc2CCc2ccccc21 (Ac-[X1]FNYYW-OH) showed an IC50 (Endothelin-1 receptor) of 1.9 µM and an IC50 [1] of 4.3 µM.
For CC(=O)N[C@@H](Cc1c[nH]c2ccccc12)C(=O)N[C@@H](Cc1ccccc1)C(=O)N[C@@H](Cc1ccccc1)C(=O)N[C@@H](CC(N)=O)C(=O)N[C@@H](Cc1ccc(O)cc1)C(=O)N[C@@H](Cc1ccc(O)cc1)C(=O)N[C@@H](Cc1c[nH]c2ccccc12)C(=O)O, the IC50 (Endothelin-1 receptor) was 0.25 µM and the IC50 [1] was 7.6 µM.
Work on NC(=O)C[C@H](NC(=O)[C@H](Cc1ccccc1)NC(=O)[C@@H](N)C1c2ccccc2CCc2ccccc21)C(=O)N[C@@H](Cc1ccc(O)cc1)C(=O)N[C@@H](Cc1ccc(O)cc1)C(=O)N[C@@H](Cc1c[nH]c2ccccc12)C(=O)O (H-[X1]FNYYW-OH) yielded an IC50 (Endothelin-1 receptor) of 9.5 µM and an IC50 [1] of 13 µM.
With C[C@@H]1NC(=O)[C@H]([C@@H](C)O)NC(=O)CNC(=O)[C@H](Cc2c[nH]cn2)NC(=O)[C@H](Cc2c[nH]c3ccccc23)NC(=O)[C@H](CC(N)=O)NC(=O)CNC(=O)C[C@@H](C(=O)N[C@@H](Cc2c[nH]c3ccccc23)C(=O)N[C@@H](Cc2ccccc2)C(=O)N[C@@H](Cc2ccccc2)C(=O)N[C@@H](CC(N)=O)C(=O)N[C@@H](Cc2ccc(O)cc2)C(=O)N[C@@H](Cc2ccc(O)cc2)C(=O)N[C@@H](Cc2c[nH]c3ccccc23)C(=O)O)NC(=O)[C@@H]2CCCN2C1=O (stereo in doubt; 2) the IC50 (Endothelin-1 receptor) was 7.8 µM and the IC50 [1] was 6.5 µM.
For NC(=O)C[C@H](NC(=O)[C@H](Cc1ccccc1)NC(=O)[C@@H](N)Cc1ccccc1)C(=O)N[C@@H](Cc1ccc(O)cc1)C(=O)N[C@@H](Cc1ccc(O)cc1)C(=O)N[C@@H](Cc1c[nH]c2ccccc12)C(=O)O (H-FFNYYW-OH), the IC50 (Endothelin-1 receptor) was greater than 25 µM and the IC50 [1] was greater than 25 µM.
For C[C@@H]1NC(=O)[C@H]([C@@H](C)O)NC(=O)CNC(=O)[C@H](Cc2c[nH]cn2)NC(=O)[C@H](Cc2c[nH]c3ccccc23)NC(=O)[C@H](CC(N)=O)NC(=O)CNC(=O)C[C@@H](C(=O)N[C@@H](Cc2c[nH]c3ccccc23)C(=O)N[C@@H](Cc2ccccc2)C(=O)N[C@@H](Cc2ccccc2)C(=O)N[C@@H](CC(N)=O)C(=O)N[C@@H](Cc2ccc(O)cc2)C(=O)N[C@@H](Cc2ccc(O)cc2)C(=O)N[C@@H](Cc2c[nH]c3ccccc23)C(=O)O)NC(=O)[C@@H]2CCCN2C1=O (stereo in doubt; 1), the IC50 (Endothelin-1 receptor) was greater than 5 µM and the IC50 [1] was 0.01 µM.
Compound C[C@H](NC(=O)[C@@H](NC(=O)CNC(=O)[C@H](Cc1c[nH]cn1)NC(=O)[C@@H](N)Cc1c[nH]c2ccccc12)[C@@H](C)O)C(=O)N1CCC[C@H]1C(=O)N[C@@H](CC(=O)O)C(=O)N[C@@H](Cc1c[nH]c2ccccc12)C(=O)N[C@@H](Cc1ccccc1)C(=O)N[C@@H](Cc1ccccc1)C(=O)N[C@@H](CC(N)=O)C(=O)N[C@@H](Cc1ccc(O)cc1)C(=O)N[C@@H](Cc1ccc(O)cc1)C(=O)N[C@@H](Cc1c[nH]c2ccccc12)C(=O)O (H-WHGTAPDWFFNYYW-OH) has an IC50 (Endothelin-1 receptor) greater than 2.5 µM and an IC50 [1] greater than 2.5 µM.
In the case of C[C@H](NC(=O)[C@@H](NC(=O)CNC(=O)[C@H](Cc1c[nH]cn1)NC(=O)[C@H](Cc1c[nH]c2ccccc12)NC(=O)[C@H](CC(N)=O)NC(=O)CN)[C@@H](C)O)C(=O)N1CCC[C@H]1C(=O)N[C@@H](CC(=O)O)C(=O)N[C@@H](Cc1c[nH]c2ccccc12)C(=O)N[C@@H](Cc1ccccc1)C(=O)N[C@@H](Cc1ccccc1)C(=O)N[C@@H](CC(N)=O)C(=O)N[C@@H](Cc1ccc(O)cc1)C(=O)N[C@@H](Cc1ccc(O)cc1)C(=O)N[C@@H](Cc1c[nH]c2ccccc12)C(=O)O, the IC50 (Endothelin-1 receptor) is reported as greater than 2.5 µM and the IC50 [1] is reported as greater than 2.5 µM.
CC(=O)N[C@H](Cc1c[nH]c2ccccc12)C(=O)N[C@@H](Cc1ccccc1)C(=O)N[C@@H](Cc1ccccc1)C(=O)N[C@@H](CC(N)=O)C(=O)N[C@@H](Cc1ccc(O)cc1)C(=O)N[C@@H](Cc1ccc(O)cc1)C(=O)N[C@@H](Cc1c[nH]c2ccccc12)C(=O)O showed an IC50 (Endothelin-1 receptor) of 8.1 µM and an IC50 [1] of 14 µM.

Source: ChEMBL document CHEMBL1152094, “Res-701-1, synthesis and a reevaluation of its effects on the endothelin receptors” (Bioorg Med Chem Lett, 1995)
